Results taken from paper PMC6934184, “Selective DNA-PKcs inhibition extends the therapeutic index of localized radiotherapy and chemotherapy” (The Journal of Clinical Investigation, 2019).

Target: T1, CAMK1 (CaMK1) (Homo sapiens, UniProt Q14012)
T1 construct: purchased Thermo Fisher Scientific (Life Technologies) SelectScreen
Test: SelectScreen Adapta
Type: biochemical
Conditions: ATP 10 µM
How it was run: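 NU5455 was profiled across the SelectScreen Broad panel of kinase activity and binding assays. Z'LYTE reactions such as CSF1R ran at apparent Km ATP, while the Adapta CAMK1 assay used ATP listed as 10. Values are given as percent.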

T1 sequence (Q14012 whole entry): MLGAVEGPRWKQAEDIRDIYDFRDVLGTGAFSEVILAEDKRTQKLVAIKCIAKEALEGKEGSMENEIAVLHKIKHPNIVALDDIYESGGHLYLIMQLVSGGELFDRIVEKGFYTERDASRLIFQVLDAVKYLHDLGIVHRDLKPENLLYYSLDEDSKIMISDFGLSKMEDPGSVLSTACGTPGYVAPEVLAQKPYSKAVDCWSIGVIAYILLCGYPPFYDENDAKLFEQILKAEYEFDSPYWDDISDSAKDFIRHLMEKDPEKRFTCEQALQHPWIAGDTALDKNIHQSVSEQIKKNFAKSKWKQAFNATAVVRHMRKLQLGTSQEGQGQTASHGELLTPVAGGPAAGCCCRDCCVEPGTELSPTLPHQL

CN(C(=O)CN1CCOCC1)c1ccc2sc3c(-c4cccc5c(=O)cc(N6CC7CCC(C6)O7)oc45)cccc3c2c1 [NU5455]
inhibition at 1 µM: 0.8%
